{"source": "patent US20240025849A1", "about": "(MAX DELBRÜCK-CENTRUM FÜR MOLEKULARE MEDIZIN IN DER …, priority 2020, published 2024)", "key": {"[1]": {"tested_on": "Microglial cells", "assay": "Microchemotaxis assay (Boyden chamber): chemotaxis and motility", "format": "cell-based, mouse", "description": "Microchemotaxis assay. The effect of the compound on directed migration and general motility was tested using a 48-well microchemotaxis Boyden chamber (Neuroprobe, Gaithersburg, USA). Upper and lower wells were separated by polycarbonate filter (8 μm pore size; Poretics). Microglial cells (2-4×10^4 cells) in 50 μl plain medium were added to the upper compartment. In addition, 2.5 μM of compound in DMSO, 125×10-5 v/v DMSO respectively, and/or 100 μM ATP were added to the upper and/or lower chamber, as shown in FIG. 3A. Plain medium was used as a control. The chamber was incubated at 37° C. and 5% CO2 for 6 h. Cells remaining on the upper surface of the membrane were removed by wiping, and cells in the lower compartment were fixed in methanol for 10 min and subjected to Diff-Quik stain (Medion Grifols Diagnostics AG, Dudingen, Switzerland). The rate of microglial migration was calculated by counting cells in four random fields of each well using a 20×bright-field objective. All data were normalised to ATP induced chemotaxis."}, "[2]": {"tested_on": "C57Bl/6 mice after 30 minutes MCAO", "assay": "Middle cerebral artery occlusion (MCAO) model of mild ischemic injury", "format": "in vivo, mouse", "details": "5 mg/kg i.p. daily", "description": "Animals and Group Allocation for middle cerebral artery occlusion (MCAO) study. C57BL/6 (13 weeks old, Charles River, Germany) male mice were handled according to governmental (LaGeSo-G0249/15) and internal (MDC/Charitd) rules and regulations, having free access to food and water. A total of 24 male mice were analysed after a 30 minutes of left-sided MCAO. Animals were randomly attributed to treatment paradigms, and experimenters were blinded at all stages of interventions. The mice were injected intraperitoneally (i.p.) every day for the 7 days, subsequently of the behavioral tests, with the compound (n=11) or with the vehicle ([…], n=13).\nInduction of cerebral ischemia. Mice were anesthetized for induction with 3-4% isoflurane and maintained in 1.5% isoflurane in 70% N2O and 30% O2 using a vaporizer. MCAO was essentially performed as described elsewhere (Endres et al., 2000). In brief, brain ischemia was induced with a silicone rubber-coated monofilament 7-0, diameter 0.06-0.09 mm, length 20 mm; diameter with coating […]; coating length 9-10 mm. The filament was introduced into the internal carotid artery up to the anterior cerebral artery. Thereby, the middle cerebral artery and anterior choroidal arteries were occluded. The filament was removed after 30 min to allow reperfusion.\nMRI was performed using a 7 Tesla rodent scanner (Pharmascan 70/16, Bruker BioSpin, Bruker, Billerica, USA) with a 16 cm horizontal bore magnet and a 9 cm (inner diameter) shielded gradient with an H-resonance-frequency of 300 MHz and a maximum gradient strength of 300 mT/m. For imaging a 20 mm-1H-RF quadrature-volume resonator with an inner diameter of 20 mm was used. Data acquisition and image processing were carried out with the Bruker software Paravision 5.1. During the examinations mice were placed on a heated circulating water blanket to ensure constant body temperature of 37° C. Anaesthesia was induced with 2.5% and maintained with 2.0-1.5% isoflurane (Forene, Abbot, Wiesbaden, Germany) delivered in an O2/N2 mixture (0.3/0.7 L/min) via a facemask under constant ventilation monitoring (Small Animal Monitoring & Gating System, SA Instruments, New York, USA). For imaging the mouse brain a T2-weighted 2D turbo spin-echo sequence was used (imaging parameters TR/TE=4200/36 ms, rare factor 8, 4 averages, 32 axial slices with a slice thickness of 0.5 mm, field of view of 2.56×2.56 cm, matrix size 256×256).\nCalculation of lesion volume was carried out with the program Analyze 10.0 (AnalyzeDirect, Inc., Overland Park, USA). The hyperintense ischemic areas in axial T2-weighted images were assigned with a region of interest tool. This enables threshold based segmentation by connecting all pixels within a specified threshold range about the selected seed pixel and results in 3D object map of the whole stroke region. Further the total volume of the whole object map was automatically calculated.\nThe Rotarod test was performed to access motor coordination using a treadmill with a diameter of 3 cm (TSE Systems, Chesterfield, USA). This test was performed with accelerating velocity (4-40 rpm) and maximal velocity was achieved after 300 s. The time until the animals dropped was measured. Animals were trained on day 2 and 3 before MCAO and baseline was taken on the day before MCAO. Tests were always performed four times and means were used for statistical analysis.\nA vertical pole (80 cm high with rough surface) was used for this test, to analyse extrapyramidal motor locomotion. Mice were placed head upward on the top of the pole. The time taken to orientate the body completely downwards, making a 180° turn (t turn), and to reach the floor with all four paws (t down) were recorded. If the animal was unsuccessful for either task, it was scored the maximum time that any other animal from the same experimental group took to perform the task. Animals were trained on day 2 and 3 before MCAO and baseline was taken on the day before MCAO. […]"}, "[3]": {"tested_on": "nNOS", "assay": "NOS enzyme activity assay (Eurofins), nNOS", "format": "biochemical", "details": "C1: 1 nM and 1 μM; 30 min reaction", "description": "In mammalians NO is produced by the three isoforms of NOS: iNOS, eNOS, and nNOS. To evaluate the direct influence of cl on the different isoforms of NOS, an enzyme activity assay was conducted by Eurofins. C1 was mixed with the enzyme buffer, which included co-factors and substrates and by adding the enzyme the reaction was initiated. After 30 min the reaction was stopped, and NO concentration was measured. The results are normalised to positive control performed without any additional compounds and are presented as percentage in inhibition. […] To test the compounds effect on iNOS a concentration range from […] 5 μM were applied ([…], 1, 10, 100 nM, 1, and 5 μM), and for testing eNOS and nNOS 1 nM and 1 μM were applied."}}, "note": "“Also recorded” adds a separate entry of the source.", "data": [{"smiles": "COc1ccc(NC(=O)C(NC(=O)C2CCCN2C(=O)OCc2ccccc2)c2ccc(OC)cc2)cc1", "note": "(stereo not shown) [C1]", "values": [{"measurement": "ATP induced motility", "setting": "[1]; 2.5 μM C1, 100 μM ATP", "value": "neither changed; also recorded: not altered"}, {"measurement": "microglial motility", "setting": "[1]; 2.5 μM C1 on both sides of the chamber", "value": "reduced in the presence of C1 significantly compared to plain medium (p=0.0018) but not to DMSO; also recorded: did not significantly affect motility compared to the DMSO control, however it did, when compared to the plain medium control"}, {"measurement": "chemotaxis (cells migrating towards C1)", "setting": "[1]; gradient of 2.5 μM C1, 6 h", "value": "increased chemotaxis significantly; also recorded: significantly higher"}, {"measurement": "pole test, time descending the pole", "setting": "[2]; day 2 after MCAO", "value": 6.592, "unit": "s"}, {"measurement": "pole test, time to turn 180°", "setting": "[2]; day 2 after MCAO", "value": 1.175, "unit": "s"}, {"measurement": "accelerated Rotarod test", "setting": "[2]; day 2 and 5 after MCAO, vs vehicle", "value": "no differences; also recorded: No significant difference"}, {"measurement": "volume of the ischemic lesion (MRI)", "setting": "[2]; day 3 after MCAO, vs vehicle", "value": "did not cause a significant difference; also recorded: No significant difference"}, {"measurement": "pole test, difference to control group", "setting": "[2]; day 5 after MCAO", "value": "No differences were observed"}, {"measurement": "corner test, turns to the left in 10 turns", "setting": "[2]; day 6 after MCAO", "value": 7.00}, {"measurement": "enzymatic activity of nNOS", "setting": "[3]", "value": "does not interfere"}]}]}
